“And” between values parts separate entries of the source, which are not always exact repeats. Identical values can stand only once. Like-named read-outs stand apart in the source and are kept apart here.
Key:
BTK-NanoLuc fusion = target: T1, BTK-NanoLuc fusion (Homo sapiens, UniProt Q06187); assay: NanoBRET BTK in-cell target engagement assay; type: cell-based; settings: for K′P,D (relative intracellular accumulation coefficient): Kd (BTK)/IC50,TE (BTK)
T1 construct: host or cells: HEK 293T/17
Experimental: The target engagement assay for BTK or CRBN was from Promega (BTK kit, Cat. No. N2500; CRBN kit, Cat. No. CS1810C136) and was performed according to the manufacture’s instruction with some modifications. Briefly, HEK 293/T17 cells (ATCC) were transiently transfected with BTK-NanoLuc® fusion vector or NanoLuc®-CRBN fusion vector (Promega) in 0.125 M CaCl2 and 1x HBS. Forty-eight hours after transfection, the cells were resuspended in Opti-MEM medium (Life Technologies, Cat. No. 11058021) at the density of 2 × 10^5 cells per mL and were plated into 96-well plates (Corning, Cat. No. CLS3600). Cells were incubated with 1.0 µM (BTK) or 0.5 µM (CRBN) NanoBRET™ Tracer and serially diluted unlabeled BTK PROTAC compounds (from 10 to 0.0032 µM, 5-fold dilution) for 2 h at 37 °С with 5% CO2 in an incubator. After 2 h incubation, the 3X Nano-Glo® Substrate with NanoLuc® extracellular inhibitor were added to cells and developed for 3 min at room temperature. BRET signals were collected using a BioTek SYNERGY H1 microplate reader equipped with a 450/80-nm BP filter for donor emission and a 610-nm LP filter for acceptor emission. BRET Ratio was calculated with the equation: [(Acceptor sample/Donor sample)–(Acceptor no tracer control/Donor no tracer control)] × 1000. The IC50 of the compound against its BTK or CRBN tracer was calculated using GraphPad Prism software.

MOLM-14 cells = assay: AlamarBlue cell viability assay, MOLM-14; settings: for MOLM-14 Cell Viability%: Figure 2f, 5 replicates; for IC50: Homo sapiens, MOLM-14, 72 h, read-out: Cell viability IC50, MOLM-14 cells, 72 h, Alamar Blue; for Cell viability, MOML-14: Supplementary Figure 7, replicates
Experimental: The IC50 was calculated using GraphPad Prism software with a four-parameter dose-response curve fit.

BTK = BTK (Mus musculus, UniProt P35991); assay: BTK degradation in mouse B-cell lymphoma cell line derived from Eu-Myc mice; type: cell-based; set-up: endogenous in cells; host or cells: B cell lymphoma cell line derived from Eu-Myc mice; settings: Supplementary Figure 10, replicates, DMSO about 100
Experimental: MOLM-14 cell line was obtained from Dr. Conneely at Baylor College of Medicine, and the Mino cells were purchased from the American Type Culture Collection (ATCC, Cat. No. CRL-3000). Both cell lines were cultured in RPMI 1640 medium (Thermo Fisher Scientific, Cat. No. MT10040CV) supplemented with 10% fetal bovine serum (GE Healthcare, Cat. No. SH30071.03) and 1% Pen/Strep (Thermo Fisher Scientific, Cat. No. 15140163). The wild-type and C481S BTK XLA cell lines were gifts from Dr. Woyach at The Ohio State University and were cultured in RPMI 1640 medium with 15% fetal bovine serum, 1% Pen/Strep, and 1.0 µg/ml puromycin (Thermo Fisher Scientific, Cat. No. A1113803). HEK 293T/17 cells were purchased from ATCC (Cat. No. CRL-11268) were maintained in DMEM (Thermo Fisher Scientific, Cat. No. MT10013CV) with 10% fetal bovine serum and 1% Pen-Strep. The B cell lymphoma cell line derived from Eu-Myc mice was a gift from Dr. Yulin Li at Houston Methodist Research Institute and cultured in RPMI 1640 medium supplemented with 15% (v/v) fetal bovine serum (FBS), 100 U/mL penicillin, 100 μg/mL streptomycin, and 0.05 mM beta-mercaptoethanol and puromycin (1 μg/mL). Cells were grown at 37 °C with 5% CO2.
The collected cells and spleen tissues were lysed in RIPA lysis buffer (50 mM Tris-HCl, pH 7.4, 150 mM NaCl, 1% NP-40, 0.5% sodium deoxycholate, 0.1% SDS) supplemented with Halt™ Protease and Phosphatase Inhibitor Cocktail (Thermo Fisher Scientific, Cat. No. PI78440) immediately before use. Lysates were centrifuged at 15,000 × g for 10 min at 4 °C and the supernatant was quantified for total protein concentration using the Pierce BCA Protein Assay (Thermo Fisher Scientific, Cat. No. 23225). Thirty micrograms of protein were loaded onto sodium dodecyl sulfate−polyacrylamide gel for electrophoresis (Bio-Rad) and transferred onto PVDF membranes (Millipore, Cat. No. IPVH00010). […] Imaging was performed using the ECL Prime chemiluminescent western blot detection reagents (GE Healthcare, Cat. No. RPN2232) by visualization of the blots to X-Ray film or with an Imager (Kindle Biosciences, Cat. No. D1001). All western blots were subsequently processed and quantified with Imager software. Protein level was normalized to β-actin or GAPDH loading controls.

Mino = assay: IC50 in MCL cell lines (Supplementary Table 2), Mino; settings: for Cell Viability (%): Mino cells, replicate wells; for IC50: Mino, triplicates

Sequence of BTK (P35991 whole entry): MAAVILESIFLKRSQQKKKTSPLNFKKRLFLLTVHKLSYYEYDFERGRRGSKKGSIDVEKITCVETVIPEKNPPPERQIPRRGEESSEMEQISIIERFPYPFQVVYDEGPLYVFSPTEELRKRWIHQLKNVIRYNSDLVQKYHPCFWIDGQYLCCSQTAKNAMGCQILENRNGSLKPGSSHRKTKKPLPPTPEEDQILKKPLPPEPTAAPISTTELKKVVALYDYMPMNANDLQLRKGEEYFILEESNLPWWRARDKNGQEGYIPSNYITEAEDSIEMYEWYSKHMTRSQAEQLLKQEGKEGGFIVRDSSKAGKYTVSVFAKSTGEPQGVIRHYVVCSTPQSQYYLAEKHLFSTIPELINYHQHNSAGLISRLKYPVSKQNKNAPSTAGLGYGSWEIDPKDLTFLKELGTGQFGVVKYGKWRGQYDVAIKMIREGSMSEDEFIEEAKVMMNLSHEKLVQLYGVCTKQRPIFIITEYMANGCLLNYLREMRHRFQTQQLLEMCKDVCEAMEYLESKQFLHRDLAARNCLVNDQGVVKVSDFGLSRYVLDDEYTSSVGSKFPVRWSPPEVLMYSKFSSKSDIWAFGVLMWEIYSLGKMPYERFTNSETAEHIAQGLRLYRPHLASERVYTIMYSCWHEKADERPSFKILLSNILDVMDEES
T1 sequence (Q06187 whole entry, the tested form may be a part): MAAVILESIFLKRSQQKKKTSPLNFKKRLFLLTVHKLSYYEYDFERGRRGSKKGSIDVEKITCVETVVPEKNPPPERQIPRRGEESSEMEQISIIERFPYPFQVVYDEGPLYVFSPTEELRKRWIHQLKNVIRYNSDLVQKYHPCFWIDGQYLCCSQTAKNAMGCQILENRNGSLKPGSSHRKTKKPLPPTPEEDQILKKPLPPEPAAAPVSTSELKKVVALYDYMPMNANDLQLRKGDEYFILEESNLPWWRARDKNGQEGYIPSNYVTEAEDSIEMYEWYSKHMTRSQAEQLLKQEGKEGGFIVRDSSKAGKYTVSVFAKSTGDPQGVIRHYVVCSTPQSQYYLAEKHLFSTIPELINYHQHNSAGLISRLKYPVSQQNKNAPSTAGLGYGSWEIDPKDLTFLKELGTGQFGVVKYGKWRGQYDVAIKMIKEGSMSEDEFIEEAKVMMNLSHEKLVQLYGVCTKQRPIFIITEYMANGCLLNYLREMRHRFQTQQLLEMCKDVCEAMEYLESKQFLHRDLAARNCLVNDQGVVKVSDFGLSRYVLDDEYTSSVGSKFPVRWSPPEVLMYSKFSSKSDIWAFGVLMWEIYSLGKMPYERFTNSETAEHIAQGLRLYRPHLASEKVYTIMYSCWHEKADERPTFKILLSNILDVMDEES

Structure (SMILES) | K′P,D (relative intracellular accumulation coefficient) (BTK-NanoLuc fusion) | IC50 (MOLM-14 cells) | Cell viability, MOML-14 (MOLM-14 cells; drug concentration 1.00E-05 M) | Cell viability, MOML-14 (MOLM-14 cells; drug concentration 1.60E-08 M) | Cell viability, MOML-14 (MOLM-14 cells; drug concentration 2.00E-06 M) | Cell viability, MOML-14 (MOLM-14 cells; drug concentration 3.20E-09 M) | Cell viability, MOML-14 (MOLM-14 cells; drug concentration 4.00E-07 M) | Cell viability, MOML-14 (MOLM-14 cells; drug concentration 6.40E-10 M) | Cell viability, MOML-14 (MOLM-14 cells; drug concentration 8.00E-08 M) | Cell Viability (%) (Mino; 1.25E-06 M) | Cell Viability (%) (Mino; 1.56E-07 M) | Cell Viability (%) (Mino; 2.50E-06 M) | Cell Viability (%) (Mino; 3.13E-07 M) | Cell Viability (%) (Mino; 5.00E-06 M) | Cell Viability (%) (Mino; 6.25E-07 M) | Cell Viability (%) (Mino; 7.81E-08 M) | IC50 (Mino) | further results
CN(CCCNC(=O)CNc1cccc2c1C(=O)N(C1CCC(=O)NC1=O)C2=O)CCCC(=O)N1CCCC(n2nc(-c3ccc(Oc4ccccc4)cc3)c3c(N)ncnc32)C1 (centres unmarked) [RNC-1] | 3.7 × 10^−3 | 4100 nM |  |  |  |  |  |  |  |  |  |  |  |  |  |  |  | NanoBRET(%) (BTK-NanoLuc fusion; Figure 3c, 1.00E-05 M, triplicates): 19.811% and 15.5465% and 15.3581%; NanoBRET(%) (BTK-NanoLuc fusion; Figure 3c, 1.60E-08 M, triplicates): 97.712% and 94.5586% and 94.4887%; NanoBRET(%) (BTK-NanoLuc fusion; Figure 3c, 2.00E-06 M, triplicates): 33.1128% and 33.4469% and 31.5012%; NanoBRET(%) (BTK-NanoLuc fusion; Figure 3c, 3.20E-09 M, triplicates): 87.6339% and 98.6398% and 114.053%; NanoBRET(%) (BTK-NanoLuc fusion; Figure 3c, 4.00E-07 M, triplicates): 69.4314% and 86.9635% and 77.822%; NanoBRET(%) (BTK-NanoLuc fusion; Figure 3c, 8.00E-08 M, triplicates): 100.734% and 107.362% and 104.968%; IC50 (BTK-NanoLuc fusion; HEK-293 cells, BTK tracer 1.0 µM, Table 1 / Fig. 3c, triplicates, read-out: BTK TE IC50,TE): 1270 nM; intracellular accumulation of RC-1 relative to the compound (BTK-NanoLuc fusion; from K′P,D values, BTK (Table 1)): 40 folds; MOLM-14 Cell Viability% (MOLM-14 cells; 1.00E-05 M): 22.564% and 21.8706% and 28.4317% and 19.6302% and 20.5903%; MOLM-14 Cell Viability% (MOLM-14 cells; 1.60E-08 M): 88.2112% and 80.7255% and 82.3435% and 80.6899% and 90.8606%; MOLM-14 Cell Viability% (MOLM-14 cells; 2.00E-06 M): 59.495% and 70.377% and 65.6472% and 60.4907% and 61.7354%; MOLM-14 Cell Viability% (MOLM-14 cells; 3.20E-09 M): 88.958% and 75.6935% and 86.6821% and 75.5334% and 84.3883%; MOLM-14 Cell Viability% (MOLM-14 cells; 4.00E-07 M): 78.8051% and 78.5206% and 78.325% and 79.1785% and 78.2717%; MOLM-14 Cell Viability% (MOLM-14 cells; 6.40E-10 M): 75.0356% and 77.596% and 87.8023% and 83.7127% and 80.761%; MOLM-14 Cell Viability% (MOLM-14 cells; 8.00E-08 M): 68.7056% and 84.1394% and 79.712% and 75.2134% and 77.276%; BTK quantification (anti-BTK / anti-β-actin) (BTK; 8 nM): 97.1575 and 95.3789; BTK quantification (anti-BTK / anti-β-actin) (BTK; 40 nM): 69.0679 and 73.2452; BTK quantification (anti-BTK / anti-β-actin) (BTK; 200 nM): 33.5661 and 27.9942
CC(C)(C)C=C(C#N)C(=O)N1CCCC(n2nc(-c3ccc(Oc4ccccc4)cc3)c3c(N)ncnc32)C1 (centres unmarked) [RC-Ctrl] | 1.5 × 10^−1 | 500 nM | 7.067 and 3.271 and 5.661 and 1.305 and 2.339 | 100.163 and 86.7229 and 69.3512 and 65.5718 and 65.0973 | 19.6597 and 13.6262 and 19.5071 and 12.6093 and 12.5585 | 99.2136 and 96.6714 and 77.7744 and 79.5709 and 66.0125 | 73.5374 and 63.2161 and 57.9961 and 48.3526 and 44.7427 | 106.654 and 105.722 and 82.8418 and 81.5368 and 73.0798 | 93.8411 and 82.0283 and 73.1815 and 65.3176 and 60.962 | 64.9212% and 67.7956% and 65.2142% | 72.1676% and 75.0045% and 70.0395% | 62.0161% and 61.5033% and 61.0381% | 62.4012% and 64.8258% and 70.1741% | 55.6234% and 57.3306% and 56.4139% | 64.669% and 69.1433% and 66.0679% | 69.6595% and 74.2003% and 68.2948% | > 5000 nM | NanoBRET(%) (BTK-NanoLuc fusion; Figure 3d, 1.00E-05 M, triplicates): 3.378% and 4.061% and 7.763%; NanoBRET(%) (BTK-NanoLuc fusion; Figure 3d, 1.60E-08 M, triplicates): 68.6994% and 58.5265% and 79.8426%; NanoBRET(%) (BTK-NanoLuc fusion; Figure 3d, 2.00E-06 M, triplicates): 7.973% and 4.415% and 10.8959%; NanoBRET(%) (BTK-NanoLuc fusion; Figure 3d, 3.20E-09 M, triplicates): 72.0977% and 81.5236% and 73.9704%; NanoBRET(%) (BTK-NanoLuc fusion; Figure 3d, 8.00E-08 M, triplicates): 48.5638% and 40.5056% and 47.7559%; IC50 (BTK-NanoLuc fusion; experiment of Fig. 3d, read-out: BTK target engagement IC50): 47 nM
CN1C(=O)CCC(N2C(=O)c3cccc(NCC(=O)NCCCN(C)C(C)(C)C=C(C#N)C(=O)N4CCCC(n5nc(-c6ccc(Oc7ccccc7)cc6)c6c(N)ncnc65)C4)c3C2=O)C1=O (centres unmarked) [RC-1-Me] |  | 210 nM | 5.925 and 2.684 and 5.158 and 0.5402 and 1.464 | 108.445 and 78.2274 and 85.8427 and 61.7071 and 70.0718 | 12.3031 and 8.922 and 10.0028 and 5.594 and 8.609 | 105.5 and 93.5975 and 67.3881 and 77.0075 and 77.9834 | 48.707 and 38.2511 and 45.3611 and 24.9024 and 42.2243 | 105.5 and 122.177 and 88.0908 and 73.4874 and 67.8761 | 81.0853 and 58.6749 and 68.6428 and 51.3383 and 65.994 | 62.8357% and 58.5114% and 61.2528% | 87.7372% and 87.5805% and 85.7829% | 55.4376% and 54.2347% and 53.6197% | 79.9575% and 76.1954% and 74.7404% | 43.6522% and 45.138% and 46.9951% | 66.0951% and 69.0683% and 66.9419% | 88.6147% and 85.2411% and 92.7295% | 3300 nM | 

From PMC7450057, “Enhancing intracellular accumulation and target engagement of PROTACs with reversible covalent chemistry” (Nature Communications, 2020)
